In ChEMBL document CHEMBL3045810, “Synthesis and evaluation of 4-(substituted)-acetylamino-3-mercapto-5-(4-substituted) phenyl-1,2,4-triazole derivatives as antimicrobial agents” (2012):
Active and inactive are the calls of the source. The calls are words filed in the database; no cut-off is given here.

Experiments:
[1] = system: Escherichia coli; experiment: Antibacterial activity against Escherichia coli ATCC 8793 at 70 ug/ml after 24 hr by paper disk diffusion method; format: functional; conditions: ATCC 8793, 24 h, read-out: DIZ
[2] = system: Fusarium oxysporum; experiment: Fungicidal activity against Fusarium oxysporum MTCC 2087; format: functional, organism-based
[3] = system: Aspergillus niger; experiment: Fungicidal activity against Aspergillus niger MTCC 3323; format: functional, organism-based
[4] = system: Candida albicans; experiment: Fungicidal activity against Candida albicans MTCC 227; format: functional, organism-based
[5] = system: Bacillus subtilis; experiment: Bactericidal against Bacillus subtilis ATCC 6633; format: functional, organism-based
[6] = system: Staphylococcus aureus; experiment: Antibacterial activity against Staphylococcus aureus ATCC 25923 at 50 ug/ml after 24 hr by paper disk diffusion method; format: functional; conditions: ATCC 25923, 24 h, read-out: DIZ
[7] = system: Staphylococcus aureus; experiment: Antibacterial activity against Staphylococcus aureus ATCC 25923 at 70 ug/ml after 24 hr by paper disk diffusion method; format: functional; conditions: ATCC 25923, 24 h, read-out: DIZ
[8] = system: Pseudomonas aeruginosa; experiment: Antibacterial activity against Pseudomonas aeruginosa ATCC 27853 at 30 ug/ml after 24 hr by paper disk diffusion method; format: functional; conditions: ATCC 27853, 24 h, read-out: DIZ
[9] = system: Pseudomonas aeruginosa; experiment: Antibacterial activity against Pseudomonas aeruginosa ATCC 27853 at 50 ug/ml after 24 hr by paper disk diffusion method; format: functional; conditions: ATCC 27853, 24 h, read-out: DIZ
[10] = system: Pseudomonas aeruginosa; experiment: Antibacterial activity against Pseudomonas aeruginosa ATCC 27853 at 70 ug/ml after 24 hr by paper disk diffusion method; format: functional; conditions: ATCC 27853, 24 h, read-out: DIZ
[11] = system: Escherichia coli; experiment: Antibacterial activity against Escherichia coli ATCC 8793 at 30 ug/ml after 24 hr by paper disk diffusion method; format: functional; conditions: ATCC 8793, 24 h, read-out: DIZ
[12] = system: Escherichia coli; experiment: Antibacterial activity against Escherichia coli ATCC 8793 at 50 ug/ml after 24 hr by paper disk diffusion method; format: functional; conditions: ATCC 8793, 24 h, read-out: DIZ
[13] = system: Staphylococcus aureus; experiment: Bactericidal activity against Staphylococcus aureus ATCC 25923; format: functional, organism-based
[14] = system: Pseudomonas aeruginosa; experiment: Bactericidal activity against Pseudomonas aeruginosa ATCC 27853; format: functional, organism-based
[15] = system: Escherichia coli; experiment: Bactericidal activity against Escherichia coli ATCC 8793; format: functional, organism-based
[16] = system: Fusarium oxysporum; experiment: Antifungal activity against Fusarium oxysporum MTCC 2087 at 30 ug/ml by paper disk diffusion method; format: functional; conditions: read-out: DIZ
[17] = system: Fusarium oxysporum; experiment: Antifungal activity against Fusarium oxysporum MTCC 2087 at 50 ug/ml by paper disk diffusion method; format: functional; conditions: read-out: DIZ
[18] = system: Fusarium oxysporum; experiment: Antifungal activity against Fusarium oxysporum MTCC 2087 at 70 ug/ml by paper disk diffusion method; format: functional; conditions: read-out: DIZ
[19] = system: Aspergillus niger; experiment: Antifungal activity against Aspergillus niger MTCC 3323 at 30 ug/ml by paper disk diffusion method; format: functional; conditions: read-out: DIZ
[20] = system: Aspergillus niger; experiment: Antifungal activity against Aspergillus niger MTCC 3323 at 50 ug/ml by paper disk diffusion method; format: functional; conditions: read-out: DIZ
[21] = system: Aspergillus niger; experiment: Antifungal activity against Aspergillus niger MTCC 3323 at 70 ug/ml by paper disk diffusion method; format: functional; conditions: read-out: DIZ
[22] = system: Candida albicans; experiment: Antifungal activity against Candida albicans MTCC 227 at 30 ug/ml by paper disk diffusion method; format: functional; conditions: read-out: DIZ
[23] = system: Candida albicans; experiment: Antifungal activity against Candida albicans MTCC 227 at 50 ug/ml by paper disk diffusion method; format: functional; conditions: read-out: DIZ
[24] = system: Candida albicans; experiment: Antifungal activity against Candida albicans MTCC 227 at 70 ug/ml by paper disk diffusion method; format: functional; conditions: read-out: DIZ
[25] = system: Bacillus subtilis; experiment: Antibacterial activity against Bacillus subtilis ATCC 6633 at 30 ug/ml after 24 hr by paper disk diffusion method; format: functional; conditions: ATCC 6633, 24 h, read-out: DIZ
[26] = system: Bacillus subtilis; experiment: Antibacterial activity against Bacillus subtilis ATCC 6633 at 50 ug/ml after 24 hr by paper disk diffusion method; format: functional; conditions: ATCC 6633, 24 h, read-out: DIZ
[27] = system: Bacillus subtilis; experiment: Antibacterial activity against Bacillus subtilis ATCC 6633 at 70 ug/ml after 24 hr by paper disk diffusion method; format: functional; conditions: ATCC 6633, 24 h, read-out: DIZ
[28] = system: Staphylococcus aureus; experiment: Antibacterial activity against Staphylococcus aureus ATCC 25923 at 30 ug/ml after 24 hr by paper disk diffusion method; format: functional; conditions: ATCC 25923, 24 h, read-out: DIZ

SMILES	zone of inhibition at 70 µg/mL [1] [mm]	Activity [2]	Activity [3]	Activity [4]	Activity [5]	zone of inhibition at 50 µg/mL [6] [mm]	zone of inhibition at 70 µg/mL [7] [mm]	zone of inhibition at 30 µg/mL [8] [mm]	zone of inhibition at 50 µg/mL [9] [mm]	zone of inhibition at 70 µg/mL [10] [mm]	zone of inhibition at 30 µg/mL [11] [mm]	zone of inhibition at 50 µg/mL [12] [mm]	Activity [13]	Activity [14]	Activity [15]	zone of inhibition at 30 µg/mL [16] [mm]	zone of inhibition at 50 µg/mL [17] [mm]	zone of inhibition at 70 µg/mL [18] [mm]	zone of inhibition at 30 µg/mL [19] [mm]	zone of inhibition at 50 µg/mL [20] [mm]	also measured
COc1ccc(-c2nnc(S)n2NC(=O)CN(C(C)C)C(C)C)cc1	12.4	inactive	inactive	inactive	Active	9.26	10.3	11.1	12.3	13.3	9.43	10.3	Active	Active	Active	7.26	8.13	9.06	10.1	11.3	zone of inhibition at 70 µg/mL [21]: 13 mm; zone of inhibition at 30 µg/mL [22]: 11.2 mm; zone of inhibition at 50 µg/mL [23]: 12.1 mm; zone of inhibition at 70 µg/mL [24]: 13.8 mm; zone of inhibition at 30 µg/mL [25]: 8.5 mm; zone of inhibition at 50 µg/mL [26]: 9.3 mm; zone of inhibition at 70 µg/mL [27]: 10.5 mm; zone of inhibition at 30 µg/mL [28]: 8.2 mm
CCN(CC)CC(=O)Nn1c(S)nnc1-c1ccc(C)cc1	9	inactive	inactive	inactive	Active	7.4	8.2	7.3	8.4	9	7.3	8.4	Active	Active	Active	6.03	6.23	7.33	8.2	9.23	zone of inhibition at 70 µg/mL [21]: 10.2 mm; zone of inhibition at 30 µg/mL [22]: 7.13 mm; zone of inhibition at 50 µg/mL [23]: 8.7 mm; zone of inhibition at 70 µg/mL [24]: 9.23 mm; zone of inhibition at 30 µg/mL [25]: 6.4 mm; zone of inhibition at 50 µg/mL [26]: 7.43 mm; zone of inhibition at 70 µg/mL [27]: 8.26 mm; zone of inhibition at 30 µg/mL [28]: 6.36 mm
Cc1ccc(-c2nnc(S)n2NC(=O)CN(C(C)C)C(C)C)cc1	10.5	inactive	inactive	inactive	Active	8.2	9.1	8.3	9.26	10.1	8.2	9.2	Active	Active	Active	6.06	7.17	8.33	10.1	11	zone of inhibition at 70 µg/mL [21]: 12.2 mm; zone of inhibition at 30 µg/mL [22]: 8.03 mm; zone of inhibition at 50 µg/mL [23]: 9.16 mm; zone of inhibition at 70 µg/mL [24]: 10.1 mm; zone of inhibition at 30 µg/mL [25]: 7.2 mm; zone of inhibition at 50 µg/mL [26]: 8.23 mm; zone of inhibition at 70 µg/mL [27]: 9.23 mm; zone of inhibition at 30 µg/mL [28]: 7.3 mm
CCCCCN(CCCCC)CC(=O)Nn1c(S)nnc1-c1ccc(C)cc1	8.13	inactive	inactive	inactive	Active	7.1	8.16	7.13	8.13	9.17	6.26	7.16	Active	Active	Active	7.07	8.23	9.13	9.06	11.3	zone of inhibition at 70 µg/mL [21]: 12.1 mm; zone of inhibition at 30 µg/mL [22]: 7.26 mm; zone of inhibition at 50 µg/mL [23]: 8.1 mm; zone of inhibition at 70 µg/mL [24]: 9.23 mm; zone of inhibition at 30 µg/mL [25]: 6.46 mm; zone of inhibition at 50 µg/mL [26]: 7.2 mm; zone of inhibition at 70 µg/mL [27]: 8.23 mm; zone of inhibition at 30 µg/mL [28]: 6.03 mm
CCN(CC)CC(=O)Nn1c(S)nnc1-c1ccc(OC)cc1	11.2	inactive	inactive	inactive	Active	8.33	9.36	8.26	9.56	10.8	9.2	10.1	Active	Active	Active	7.26	8.21	9.06	9.13	10.2	zone of inhibition at 70 µg/mL [21]: 11.1 mm; zone of inhibition at 30 µg/mL [22]: 8.1 mm; zone of inhibition at 50 µg/mL [23]: 9.13 mm; zone of inhibition at 70 µg/mL [24]: 10.4 mm; zone of inhibition at 30 µg/mL [25]: 7.23 mm; zone of inhibition at 50 µg/mL [26]: 8.53 mm; zone of inhibition at 70 µg/mL [27]: 9.03 mm; zone of inhibition at 30 µg/mL [28]: 7.63 mm
